# According to patent publication US20240109853A1 (Shanghai Yao Yuan Biotechnology Co., Ltd., priority 2020, published 2024):
# pIC50: −log10 of the molar value.
# Legend:
# ALPK1 = ALPK1 (Homo sapiens (Human), UniProt Q96QP1); assay: ALPK1 in vitro kinase assay (HTRF of TIFA phosphorylation); format: biochemical
# [1] = test system: ALPK1-dependent NFκB reporter gene activation in HEK293 cells stably expressing an NF-kB reporter (G9 cells); assay: NFκB gene reporter alkaline phosphatase assay; format: cell-based; settings: Homo sapiens, HEK293; read-out: NFkB assay IC50
# Summary of the method: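 HEK293 G9 cells carrying an NF-κB-driven alkaline phosphatase reporter, pretreated 30 min with serially diluted compound, then stimulated with D-glycero-D-manno-6-fluoro-heptose-1β-S-ADP. Reporter activity read with chromogenic pNPP substrate; IC50 from four-parameter logistic fit.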
# Sequence of ALPK1 (Q96QP1 whole entry): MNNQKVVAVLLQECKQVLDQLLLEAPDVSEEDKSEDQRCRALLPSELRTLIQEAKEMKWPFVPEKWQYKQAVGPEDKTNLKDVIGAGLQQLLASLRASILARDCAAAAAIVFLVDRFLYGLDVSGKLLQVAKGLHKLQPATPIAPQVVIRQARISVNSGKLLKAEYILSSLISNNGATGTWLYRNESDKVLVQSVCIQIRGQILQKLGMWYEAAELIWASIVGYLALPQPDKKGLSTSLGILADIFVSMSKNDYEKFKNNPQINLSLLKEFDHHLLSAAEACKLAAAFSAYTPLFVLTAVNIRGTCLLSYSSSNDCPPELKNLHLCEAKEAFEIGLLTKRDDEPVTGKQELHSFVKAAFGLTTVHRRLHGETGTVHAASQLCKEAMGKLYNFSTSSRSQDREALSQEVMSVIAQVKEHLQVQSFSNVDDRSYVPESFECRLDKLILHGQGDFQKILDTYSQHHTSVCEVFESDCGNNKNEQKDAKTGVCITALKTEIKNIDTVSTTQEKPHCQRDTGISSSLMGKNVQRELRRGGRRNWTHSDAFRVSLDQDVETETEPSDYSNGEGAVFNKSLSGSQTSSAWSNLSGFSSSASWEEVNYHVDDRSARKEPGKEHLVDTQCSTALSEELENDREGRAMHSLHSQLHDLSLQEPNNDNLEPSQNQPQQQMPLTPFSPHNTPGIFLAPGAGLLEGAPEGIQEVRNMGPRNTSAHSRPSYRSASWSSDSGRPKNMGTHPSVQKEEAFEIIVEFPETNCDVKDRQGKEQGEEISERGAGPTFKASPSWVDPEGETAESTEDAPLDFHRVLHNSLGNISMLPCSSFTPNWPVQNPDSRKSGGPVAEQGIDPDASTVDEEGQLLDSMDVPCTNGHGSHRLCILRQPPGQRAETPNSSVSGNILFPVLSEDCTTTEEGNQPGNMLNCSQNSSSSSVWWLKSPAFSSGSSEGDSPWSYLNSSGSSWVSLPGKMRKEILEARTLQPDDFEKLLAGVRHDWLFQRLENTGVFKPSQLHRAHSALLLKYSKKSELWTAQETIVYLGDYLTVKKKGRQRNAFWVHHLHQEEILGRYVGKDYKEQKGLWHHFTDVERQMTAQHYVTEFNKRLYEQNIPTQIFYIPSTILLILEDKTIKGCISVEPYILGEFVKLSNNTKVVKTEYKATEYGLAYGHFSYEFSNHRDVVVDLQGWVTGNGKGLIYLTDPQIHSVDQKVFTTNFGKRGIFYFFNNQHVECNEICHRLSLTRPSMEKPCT
SMILES,pIC50 (ALPK1),pIC50 [1]
"CN1CCN(Cc2c(F)cc(CNC(=O)Nc3nc(C(C)(C)c4ccc(Br)cc4)cs3)cc2F)CC1 [Example A117, 1-(4-(2-(4-bromophenyl)propan-2-yl)thiazol-2-yl)-3-(3,5-difluoro-4-((4-methylpiperazin-1-yl)methyl)benzyl)urea]",7.17,5.30
"CC(NC(=O)Nc1nc(C(C)(C)c2ccc(Br)cc2)cs1)c1ccc(CN2CCN(C)CC2)cc1 (stereo not shown) [Example A118, 1-(4-(2-(4-bromophenyl)propan-2-yl)thiazol-2-yl)-3-(1-(4-((4-methylpiperazin-1-yl)methyl)phenyl)ethyl) urea]",6.64,5.36
"CC(C)(c1ccc(Br)cc1)c1csc(NC(=O)NCc2cnc(NCCO)nc2)n1 [Example A119, 1-(4-(2-(4-bromophenyl)propan-2-yl)thiazol-2-yl)-3-((2-((2-hydroxyethyl)amino)pyri-midin-5-yl)methyl)urea]",7.44,5.35
"COc1ccc(C(C)(C)c2csc(NC(=O)NCc3ccc(C(=O)NC4CCN(C)CC4)nc3)n2)cc1 [Example A120, 5-((3-(4-(2-(4-methoxyphenyl)propan-2-yl)thiazol-2-yl)ureido)methyl)-N-(1-methylpiperidin-4-yl)picolinamide]",7.28,6.00
"COc1ccc(C(C)(C)c2csc(NC(=O)NCc3cnc(N4CCNC(=O)C4)c(F)c3)n2)cc1 [Example A121, 1-((5-fluoro-6-(3-oxopiperaizn-1-yl)pyridin-3-yl)methyl)-3-(4-(2-(4-methoxyphenyl)propan-2-yl)thiazol-2-yl)urea]",6.68,5.69
"COc1ccc(C(C)(C)c2csc(NC(=O)NC3CCC(O)CC3)n2)cc1 (stereo not shown) [Example A122, 1-(4-hydroxycyclohexyl)-3-(4-(2-(4-methoxyphenyl)propan-2-yl)thiazol-2-yl)urea]",6.66,5.77
"COc1ccc(C(C)(C)c2csc(NC(=O)NC3CCCC(O)C3)n2)cc1 (stereo not shown) [Example A123, 1-(3-hydroxycyclohexyl)-3-(4-(2-(4-methoxyphenyl)propan-2-yl)thiazol-2-yl)urea]",6.45,5.62
"COc1ccc(C(C)(C)c2csc(NC(=O)NCCc3ccncc3)n2)cc1 [Example A124, 1-(4-(2-(4-methoxyphenyl)propan-2-yl)thiazol-2-yl)-3-(2-(pyridin-4-yl)ethyl)urea]",6.78,5.98
"CC(C)NC(=O)Nc1nc(C(C)(C)c2ccc(Br)cc2)cs1 [Example A125, 1-(4-(2-(4-bromophenyl)propan-2-yl)thiazol-2-yl)-3-isopropylurea]",7.55,5.55
"CC(C)(c1ccc(Br)cc1)c1csc(NC(=O)NCCCO)n1 [Example A126, 1-(4-(2-(4-bromophenyl)propan-2-yl)thiazol-2-yl)-3-(3-hydroxypropyl)urea]",7.06,5.53
"CC(C)(c1ccc(Br)cc1)c1csc(NC(=O)NCCCN2CCOCC2)n1 [Example A127, 1-(4-(2-(4-bromophenyl)propan-2-yl)thiazol-2-yl)-3-(3-morpholinopropyl)urea]",6.95,6.03
"COc1ccc(C(C)(C)c2csc(NC(=O)NCCCCO)n2)cc1 [Example A128, 1-(4-hydroxybutyl)-3-(4-(2-(4-methoxyphenyl)propan-2-yl)thiazol-2-yl)urea]",6.84,6.28
"CC(C)(c1ccc(Br)cc1)c1csc(NC(=O)NCCCN2CCC(O)C2)n1 (stereo not shown) [Example A129, 1-(4-(2-(4-bromophenyl)propan-2-yl)thiazol-2-yl)-3-(3-(3-hydroxypyrrolidin-1-yl)propyl)urea]",7.40,6.29
"CC(C)(c1ccc(Br)cc1)c1csc(NC(=O)NCCCS(C)(=O)=O)n1 [Example A130, 1-(4-(2-(4-bromophenyl)propan-2-yl)thiazol-2-yl)-3-(3-(methylsulfonyl)propyl) urea]",6.53,5.96
"CC(C)(c1ccc(Br)cc1)c1csc(NC(=O)NCCS(N)(=O)=O)n1 [Example A131, 2-(3-(4-(2-(4-bromophenyl)propan-2-yl)thiazol-2-yl)ureido)ethanesulfona-mide]",6.66,6.03
"CC(C)(c1ccc(Br)cc1)c1csc(NC(=O)NCCCS(N)(=O)=O)n1 [Example A132, 3-(3-(4-(2-(4-bromophenyl)propan-2-yl)thiazol-2-yl)ureido)propane-1-sulfonamide]",7.10,5.34
"COc1ccc(C(C)(C)c2csc(NC(=O)NCCCO)n2)cc1 [Example A133, 1-(3-hydroxypropyl)-3-(4-(2-(4-methoxyphenyl)propan-2-yl)thiazol-2-yl)urea]",7.24,6.22
"COc1ccc(C(C)(C)c2csc(NC(=O)NCCCN3CCOCC3)n2)cc1 [Example A134, 1-(4-(2-(4-methoxyphenyl)propan-2-yl)thiazol-2-yl)-3-(3-morpholinopropyl)urea]",6.82,5.29

SMILES,pIC50 (ALPK1),pIC50 [1]
"COc1ccc(C(C)(C)c2csc(NC(=O)NCCCN3CCC(O)C3)n2)cc1 (stereo not shown) [Example A135, 1-(3-(3-hydroxypyrrolidin-1-yl)propyl)-3-(4-(2-(4-methoxyphenyl)propan-2-yl)thiazol-2-yl)urea]",6.95,5.91
"COc1ccc(C(C)(C)c2csc(NC(=O)NCCCS(C)(=O)=O)n2)cc1 [Example A136, 1-(4-(2-(4-methoxyphenyl)propan-2-yl)thiazol-2-yl)-3-(3-(methylsulfonyl)propyl) urea]",6.68,6.19
"COc1ccc(C(C)(C)c2csc(NC(=O)NCCS(N)(=O)=O)n2)cc1 [Example A137, 2-(3-(4-(2-(4-methoxyphenyl)propan-2-yl)thiazol-2-yl)ureido)ethanesulfona-mide]",7.38,5.71
"COc1ccc(C(C)(C)c2csc(NC(=O)NCCCS(N)(=O)=O)n2)cc1 [Example A138, 3-(3-(4-(2-(4-methoxyphenyl)propan-2-yl)thiazol-2-yl)ureido)propane-1-sulfonamide]",7.01,5.62
"COc1ccc(C(C)(C)c2csc(NC(=O)NCc3ccc(N4CCC(O)CC4)cc3)n2)cc1 [Example A139, 1-(4-(4-hydroxypiperidin-1-yl)benzyl)-3-(4-(2-(4-methoxyphenyl)propan-2-yl)thiazol-2-yl)urea]",6.58,5.87
"COc1ccc(C(C)(C)c2csc(NC(=O)NCc3ccc(CO)cc3)n2)cc1 [Example A140, 1-(4-(hydroxymethyl)benzyl)-3-(4-(2-(4-methoxyphenyl)propan-2-yl)thiazol-2-yl)urea]",6.88,5.26
"COc1ccc(C(C)(C)c2csc(NC(=O)NCCCN3CCC(N(C)C)C3)n2)cc1 (stereo not shown) [Example A141, 1-(3-(3-(dimethylamino)pyrrolidin-1-yl)propyl)-3-(4-(2-(4-methoxyphenyl)propan-2-yl)thiazol-2-yl)urea]",6.64,5.37
"COc1ccc(C(C)(C)c2csc(NC(=O)NCCCN3CCN(C)CC3)n2)cc1 [Example A142, 1-(4-(2-(4-methoxyphenyl)propan-2-yl)thiazol-2-yl)-3-(3-(4-methylpiperazin-1-yl)propyl)urea]",6.74,5.88
"COc1ccc(C(C)(C)c2csc(NC(=O)NO)n2)cc1 [Example A144, 1-hydroxy-3-(4-(2-(4-methoxyphenyl)propan-2-yl)thiazol-2-yl)urea]",6.81,5.76
"COc1ccc(C(C)(C)c2csc(NC(=O)NCCCN(C)C)n2)cc1 [Example A145, 1-(3-(dimethylamino)propyl)-3-(4-(2-(4-methoxyphenyl)propan-2-yl)thiazol-2-yl)urea]",6.67,5.35
"CCN(CC)CCCNC(=O)Nc1nc(C(C)(C)c2ccc(OC)cc2)cs1 [Example A146, 1-(3-(diethylamino)propyl)-3-(4-(2-(4-methoxyphenyl)propan-2-yl)thiazol-2-yl)urea]",6.91,5.51
"CNS(=O)(=O)CCCNC(=O)Nc1nc(C(C)(C)c2ccc(OC)cc2)cs1 [Example A148, 3-(3-(4-(2-(4-methoxyphenyl)propan-2-yl)thiazol-2-yl)ureido)-N-methylpropane-1-sulfonamide]",7.35,6.07
"CNS(=O)(=O)[C@H]1C[C@@H](CNC(=O)Nc2nc(C(C)(C)c3ccc(OC)cc3)cs2)C1 [Example A149, rac-(1s,3s)-3-((3-(4-(2-(4-methoxyphenyl)propan-2-yl)thiazol-2-yl)ureido)methyl)-N-methylcyclobutane-1-sulfonamide]",6.81,5.03
"CNS(=O)(=O)[C@H]1C[C@H](CNC(=O)Nc2nc(C(C)(C)c3ccc(OC)cc3)cs2)C1 [Example A150, rac-(1r,3r)-3-((3-(4-(2-(4-methoxyphenyl)propan-2-yl)thiazol-2-yl)ureido)methyl)-N-methylcyclobutane-1-sulfonamide]",7.60,5.85
"COc1ccc(C(C)(C)c2csc(NC(=O)NC(C)c3cc(F)c(N4CCNCC4)c(F)c3)n2)cc1 (stereo not shown) [Example A152, 1-(1-(3,5-difluoro-4-(piperazin-1-yl)phenyl)ethyl)-3-(4-(2-(4-methoxyphenyl)propan-2-yl)thiazol-2-yl)urea]",7.26,6.46
"C#CC(C)(c1ccc(Br)cc1)c1csc(NC(=O)N2CC(O)C2)n1 (stereo not shown) [Example A153, N-(4-(2-(4-bromophenyl)but-3-yn-2-yl)thiazol-2-yl)-3-hydroxyazetidine-1-carboxamide]",7.12,6.43
"C#CC(C)(c1ccc(Br)cc1)c1csc(NC(=O)NCCCO)n1 (stereo not shown) [Example A154, 1-(4-(2-(4-bromophenyl)but-3-yn-2-yl)thiazol-2-yl)-3-(3-hydroxypropyl)urea]",7.68,6.42
